What was measured:
[1] = target: Histone deacetylase 2 (Homo sapiens, UniProt Q92769)
[2] = target: Histone deacetylase 3 (Homo sapiens, UniProt O15379)
[3] = Selectivity for HDAC10 over HDAC1
[4] = tested on: BXPC-3; experiment: Cytotoxicity against human BxPC3 cells after 72 hrs by MTT assay; assay type: functional, cell-based; settings: BXPC-3, 72 h
[5] = Cytotoxicity against human Hup T3 cells after 72 hrs by MTT assay; assay type: functional, cell-based; settings: HuP-T3, 72 h
[6] = tested on: MIA PaCa-2; experiment: Cytotoxicity against human Mia Paca2 cells after 72 hrs by MTT assay; assay type: functional, cell-based; settings: MIA PaCa-2, 72 h
[7] = Cytotoxicity against human Panc 04.03 cells after 72 hrs by MTT assay; assay type: functional, cell-based; settings: Panc 04.03, 72 h
[8] = Cytotoxicity against human SU 86.86 cells after 72 hrs by MTT assay; assay type: functional, cell-based; settings: SU.86.86, 72 h
[9] = Cytotoxicity against nontransformed human microvascular epithelial cells; assay type: ADME, cell-based; settings: Endothelial cell
[10] = Cytotoxicity against human HPDE6c7 cells; assay type: ADME, cell-based
[11] = tested on: Plasmodium falciparum; experiment: Antimalarial activity against Plasmodium falciparum D6 by hypoxanthine uptake; assay type: functional, organism-based
[12] = tested on: Plasmodium falciparum; experiment: Antimalarial activity against Plasmodium falciparum W2 by hypoxanthine uptake; assay type: functional, organism-based
[13] = tested on: Plasmodium falciparum; experiment: Antimalarial activity against Plasmodium falciparum TM90C2A by hypoxanthine uptake; assay type: functional, organism-based
[14] = target: Histone deacetylase 1 (Homo sapiens, UniProt Q13547)
[15] = target: T1, Histone deacetylase 8 (Homo sapiens, UniProt Q9BY41)
T1 sequence (Q9BY41 whole entry): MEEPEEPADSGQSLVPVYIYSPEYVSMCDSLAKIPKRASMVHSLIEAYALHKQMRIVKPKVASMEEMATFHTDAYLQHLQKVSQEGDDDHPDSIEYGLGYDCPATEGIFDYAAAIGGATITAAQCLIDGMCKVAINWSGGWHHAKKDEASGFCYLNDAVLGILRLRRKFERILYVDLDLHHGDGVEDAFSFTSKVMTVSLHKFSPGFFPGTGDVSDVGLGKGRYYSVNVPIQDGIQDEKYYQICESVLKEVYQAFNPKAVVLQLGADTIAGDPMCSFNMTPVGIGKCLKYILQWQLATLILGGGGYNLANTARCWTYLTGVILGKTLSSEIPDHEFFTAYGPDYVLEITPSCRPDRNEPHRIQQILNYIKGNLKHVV

[16] = target: T2, Polyamine deacetylase HDAC10 (Homo sapiens, UniProt Q969S8)
T2 sequence (Q969S8 whole entry): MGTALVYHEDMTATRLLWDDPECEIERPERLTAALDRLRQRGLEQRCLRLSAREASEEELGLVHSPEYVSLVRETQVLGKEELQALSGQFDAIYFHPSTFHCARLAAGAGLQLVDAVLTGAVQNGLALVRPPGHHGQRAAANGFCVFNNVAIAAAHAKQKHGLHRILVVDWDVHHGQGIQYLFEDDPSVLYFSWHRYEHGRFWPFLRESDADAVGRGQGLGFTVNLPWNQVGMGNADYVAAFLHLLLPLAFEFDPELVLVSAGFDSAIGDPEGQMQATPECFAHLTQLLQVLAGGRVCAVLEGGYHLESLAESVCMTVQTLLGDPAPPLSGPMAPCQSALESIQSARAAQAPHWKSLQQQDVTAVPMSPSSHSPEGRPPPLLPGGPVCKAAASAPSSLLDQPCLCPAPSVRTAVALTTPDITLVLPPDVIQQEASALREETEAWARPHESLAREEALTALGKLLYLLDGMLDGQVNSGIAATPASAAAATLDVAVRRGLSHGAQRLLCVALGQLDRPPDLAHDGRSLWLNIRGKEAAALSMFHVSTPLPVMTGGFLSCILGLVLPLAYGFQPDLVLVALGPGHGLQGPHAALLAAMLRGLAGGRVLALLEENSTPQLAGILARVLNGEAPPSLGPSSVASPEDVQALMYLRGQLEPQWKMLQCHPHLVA

[17] = target: T3, Protein deacetylase HDAC6 (Homo sapiens, UniProt Q9UBN7)
T3 sequence (Q9UBN7 whole entry): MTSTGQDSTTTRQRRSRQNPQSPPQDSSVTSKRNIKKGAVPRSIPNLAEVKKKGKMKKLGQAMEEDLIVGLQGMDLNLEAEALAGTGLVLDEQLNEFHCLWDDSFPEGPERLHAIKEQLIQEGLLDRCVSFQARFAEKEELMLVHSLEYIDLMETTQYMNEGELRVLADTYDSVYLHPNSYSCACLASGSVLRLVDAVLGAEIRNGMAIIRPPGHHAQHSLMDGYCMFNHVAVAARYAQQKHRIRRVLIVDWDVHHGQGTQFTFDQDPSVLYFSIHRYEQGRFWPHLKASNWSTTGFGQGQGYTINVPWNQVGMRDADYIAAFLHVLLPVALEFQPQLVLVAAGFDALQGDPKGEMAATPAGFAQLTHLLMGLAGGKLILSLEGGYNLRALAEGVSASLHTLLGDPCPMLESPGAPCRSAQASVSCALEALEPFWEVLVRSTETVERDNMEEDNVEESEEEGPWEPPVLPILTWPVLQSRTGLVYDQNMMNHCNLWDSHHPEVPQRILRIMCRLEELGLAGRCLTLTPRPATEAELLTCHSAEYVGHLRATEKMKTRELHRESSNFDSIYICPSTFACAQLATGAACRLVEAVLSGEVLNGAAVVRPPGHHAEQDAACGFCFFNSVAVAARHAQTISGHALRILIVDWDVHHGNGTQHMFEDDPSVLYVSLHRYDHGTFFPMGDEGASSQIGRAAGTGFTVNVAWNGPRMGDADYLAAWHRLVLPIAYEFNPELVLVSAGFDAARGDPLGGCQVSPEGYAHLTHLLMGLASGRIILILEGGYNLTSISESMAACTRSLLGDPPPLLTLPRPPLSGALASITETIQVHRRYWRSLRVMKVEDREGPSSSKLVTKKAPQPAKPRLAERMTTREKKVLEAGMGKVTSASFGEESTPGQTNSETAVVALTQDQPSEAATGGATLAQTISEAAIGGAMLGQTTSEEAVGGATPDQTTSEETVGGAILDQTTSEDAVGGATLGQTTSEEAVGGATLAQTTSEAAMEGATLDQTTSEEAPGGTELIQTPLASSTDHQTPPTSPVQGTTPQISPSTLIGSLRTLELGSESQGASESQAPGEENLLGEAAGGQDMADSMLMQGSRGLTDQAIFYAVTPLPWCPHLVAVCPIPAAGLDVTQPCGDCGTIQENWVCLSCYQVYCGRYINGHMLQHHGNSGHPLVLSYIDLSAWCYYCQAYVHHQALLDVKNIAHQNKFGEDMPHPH

[18] = tested on: Plasmodium falciparum; experiment: microbe, parasite or virus in culture; settings: TM91C235
Description: Antimalarial activity against Plasmodium falciparum TM91C235 by hypoxanthine uptake

Sequence of Histone deacetylase 2 (Q92769 whole entry): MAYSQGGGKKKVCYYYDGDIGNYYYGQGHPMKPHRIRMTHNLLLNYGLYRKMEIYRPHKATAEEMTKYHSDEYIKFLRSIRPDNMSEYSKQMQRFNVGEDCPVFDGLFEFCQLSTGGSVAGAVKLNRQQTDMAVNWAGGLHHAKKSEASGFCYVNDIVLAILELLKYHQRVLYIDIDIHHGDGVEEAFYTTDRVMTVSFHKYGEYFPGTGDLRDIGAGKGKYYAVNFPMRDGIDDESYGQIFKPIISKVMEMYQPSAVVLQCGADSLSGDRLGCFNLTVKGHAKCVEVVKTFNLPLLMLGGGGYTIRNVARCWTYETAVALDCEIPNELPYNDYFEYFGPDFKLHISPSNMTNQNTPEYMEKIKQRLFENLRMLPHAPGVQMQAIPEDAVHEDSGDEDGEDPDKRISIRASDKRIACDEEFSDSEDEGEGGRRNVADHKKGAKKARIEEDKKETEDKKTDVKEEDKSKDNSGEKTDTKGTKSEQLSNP
Sequence of Histone deacetylase 1 (Q13547 whole entry): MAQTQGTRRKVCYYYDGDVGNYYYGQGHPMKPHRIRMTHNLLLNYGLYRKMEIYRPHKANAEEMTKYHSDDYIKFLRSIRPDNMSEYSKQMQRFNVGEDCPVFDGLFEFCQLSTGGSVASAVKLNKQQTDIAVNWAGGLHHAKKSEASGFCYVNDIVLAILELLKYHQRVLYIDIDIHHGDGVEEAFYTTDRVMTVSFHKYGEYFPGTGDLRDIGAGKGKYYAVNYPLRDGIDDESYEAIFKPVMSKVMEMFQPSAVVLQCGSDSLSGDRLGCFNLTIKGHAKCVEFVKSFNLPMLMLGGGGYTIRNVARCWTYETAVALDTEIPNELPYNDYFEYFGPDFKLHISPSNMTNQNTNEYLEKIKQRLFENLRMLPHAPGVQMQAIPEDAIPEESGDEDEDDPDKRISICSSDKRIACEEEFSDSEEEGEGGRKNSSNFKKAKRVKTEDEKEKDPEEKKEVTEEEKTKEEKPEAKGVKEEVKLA
Sequence of Histone deacetylase 3 (O15379 whole entry): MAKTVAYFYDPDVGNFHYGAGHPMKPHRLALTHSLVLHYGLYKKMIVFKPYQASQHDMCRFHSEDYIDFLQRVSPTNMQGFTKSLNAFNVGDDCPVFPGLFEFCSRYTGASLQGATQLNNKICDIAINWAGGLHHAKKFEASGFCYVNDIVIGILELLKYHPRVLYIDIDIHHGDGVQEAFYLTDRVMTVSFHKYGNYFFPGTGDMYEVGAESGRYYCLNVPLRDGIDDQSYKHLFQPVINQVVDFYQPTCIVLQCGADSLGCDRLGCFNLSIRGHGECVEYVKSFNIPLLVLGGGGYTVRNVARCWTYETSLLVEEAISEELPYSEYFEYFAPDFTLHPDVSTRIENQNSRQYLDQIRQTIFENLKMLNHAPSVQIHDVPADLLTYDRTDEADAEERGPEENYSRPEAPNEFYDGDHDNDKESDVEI

SMILES | IC50 [1] [nM] | IC50 [2] [nM] | Ratio IC50 [3] | IC50 [4] [nM] | IC50 [5] [nM] | IC50 [6] [nM] | IC50 [7] [nM] | IC50 [8] [nM] | IC50 [9] [nM] | IC50 [10] [nM] | IC50 [11] [nM] | IC50 [12] [nM] | IC50 [13] [nM] | IC50 [14] [nM] | IC50 [15] [nM] | IC50 [16] [nM] | IC50 [17] [nM] | IC50 [18] [nM]
O=C(CCCCCCC(=O)Nc1cccc(-c2cn(Cc3ccc(F)cc3)nn2)c1)NO | 77.4 | 4 | 0.5 | 1000 | 1000 | 300 | 1000 | 1000 | < 1000 | 500 | 180 | 350 | 110 | 17.6 | 552 | 34.3 | 2.6 | 280
O=C(CCCCCCC(=O)Nc1ccc(-c2cn(-c3ccccc3)nn2)cc1)NO | 47.5 | 8 | 0.8 | 3000 | 1000 | 400 | 1000 | 1000 | 1000 | 1000 |  |  |  | 27.1 | 1970 | 36.1 | 1.3 | 
O=C(CCCCCCC(=O)Nc1cccc(-c2cn(-c3ccccc3)nn2)c1)NO | 63.9 |  |  |  |  |  | < 500 |  | < 1000 | < 200 | 17 | 32 | 17 | 18 | 2780 | 27.7 | 9.6 | 35
O=C(CCCCCCC(=O)Nc1cccc(-c2cnnn2Cc2ccccc2)c1)NO | 112 | 4.5 | 1 | 12000 | 2000 | 1000 | 4000 | 7000 |  |  | 210 | 600 | 150 | 18.6 | 433 | 19.2 | 3.3 | 370

Source: ChEMBL document CHEMBL1150413, “A series of potent and selective, triazolylphenyl-based histone deacetylases inhibitors with activity against pancreatic cancer cells and Plasmodium falciparum” (J Med Chem, 2008)
